Tests used:
calf thymus DNA (CT-DNA) = experiment: DNA thermal denaturation (melting) studies; format: binding; details: CT-DNA 100 μM DNAp, compound 20 μM, 37 °C; for Induced ΔTm after incubation 0 hours: pH 7.00, 0 hours; for Induced ΔTm after incubation 4 hours: pH 7.00, 4 hours; for Induced ΔTm after incubation 18 hours: pH 7.00, 18 hours; for Induced ΔTm after incubation 72 hours: pH 7.00, 72 hours
Experimental: The PBD agents were subjected to DNA thermal melting (denaturation) studies (Gregson, S. J., et al., Journal of Medicinal Chemistry, 44(5), 737-748 (2001); Jones, G. B., et al., Anti-Cancer Drug Design, 5(3), 249-264 (1990); McConnaughie, A. W. and; Jenkins, T. C. Journal of Medicinal Chemistry, 38(18), 3488-3501 (1995)) using calf thymus DNA (CT-DNA, type-1, highly polymerized sodium salt; 42% G+C [Sigma]) at a fixed 100 μM (DNAp=50 μM bp) concentration, determined using an extinction coefficient of 6600 (M phosphate)^−1 cm^−1 at 260 nm (Manzini, G., et al., Nucleic Acids Research, 11(24), 8861-8876 (1983)). Solutions were prepared in pH 7.00±0.01 aqueous buffer containing 10 mM NaH2PO4/Na2HPO4 and 1 mM EDTA. Working solutions containing CT-DNA and the test compound (20 μM) were incubated at 37.0±0.1° C. for 0 to 18 hours using an external water bath. Samples were monitored at 260 nm using a Varian-Cary 400 Bio spectrophotometer fitted with a Peltier heating accessory. Heating was applied at a rate of 1° C./min in the 45 to 98° C. temperature range, with optical and temperature data sampling at 200 ms intervals. A separate experiment was carried out using buffer alone, and this baseline was subtracted from each DNA melting curve before data treatment. Optical data were imported into the Origin 5 program (MicroCal Inc., Northampton, Mass.) for analysis. DNA helix→coil transition temperatures (Tm) were determined at the midpoint of the normalized melting profiles using a published analytical procedure (Jones, G. B., et al., Anti-Cancer Drug Design, 5(3), 249-264 (1990)). Results are given in table 1 as the mean±standard deviation from at least three determinations. Ligand-induced alterations in DNA melting behaviour (ΔTm) are given by ΔTm=Tm(DNA+ligand)−Tm(DNA), where the Tm value determined for free CT-DNA is 67.82±0.06° C. (averaged from >90 runs). All PBD compounds were dissolved in HPLC-grade MeOH to give working solutions containing ≦0.6% v/v MeOH; Tm results were corrected for the effects of MeOH co-solvent by using a linear correction term.
The above method was also carried out on the compounds of example 2, with all compounds being incubated for up to 72 hours.

[1] = test system: 170 bp sequence of the human Topo-IIa promoter; experiment: DNase I footprinting on Topo-IIa promoter (ICB1, ICB2 sites); format: binding; details: for Concentration at which DNA binding is observed, ICB1: ICB1 site; for Concentration at which DNA binding is observed, ICB2: ICB2 site
Experimental: In a similar manner to Example 4, the affinity and sequence selectivity of certain compounds of examples 1 and 2 was evaluated by standard DNA footprinting on a 170 bp sequence of the human Topo-IIa promoter, in accordance with the technique described in Martin, C., et al.
Selected results are shown in FIG. 9, wherein the concentrations of the lanes were 0, 1.6, 8, 40, 200, 1000, 5000 and 25000 nM in each case.
The footprinting results allowed the identification of compounds that could potentially disrupt transcription factor binding at the ICB1 and ICB2 sites. […] These compounds are detailed below in table 3, showing the concentrations (μM) at which the PBD-heterocycle conjugates bind at ICB1 and ICB2.

[2] = test system: NF-Y binding at ICB2 of Topoisomerase IIα promoter; experiment: NF-Y gel shift assay (EMSA) at ICB2

COC(=O)c1cc(NC(=O)c2csc(NC(=O)CCCOc3cc4c(cc3OC)C(=O)N3CCC[C@H]3C=N4)n2)cn1C [Compound 55]
Induced ΔTm after incubation 0 hours (calf thymus DNA (CT-DNA)): 14.5 °C | Induced ΔTm after incubation 4 hours (calf thymus DNA (CT-DNA)): 15.2 °C | Induced ΔTm after incubation 18 hours (calf thymus DNA (CT-DNA)): 15.8 °C | Induced ΔTm after incubation 72 hours (calf thymus DNA (CT-DNA)): 16.1 °C

COC(=O)c1cc(NC(=O)c2nc(NC(=O)CCCOc3cc4c(cc3OC)C(=O)N3CCC[C@H]3C=N4)cn2C)cn1C [Compound 57, (11aS) Methyl 4-({4-[4-(7-Methoxy-5-oxo-2,3,5,11a-tetrahydro-5H-pyrrolo[2,1-c][1,4]benzodiazepine-8-yloxy)-butyrylamino]-1-methyl-1H-imidazole-2-carbonyl}-amino)-1-methyl-1H-pyrrole-2-carboxylate]
Induced ΔTm after incubation 0 hours (calf thymus DNA (CT-DNA)): 2.8 °C | Induced ΔTm after incubation 4 hours (calf thymus DNA (CT-DNA)): 3.0 °C | Induced ΔTm after incubation 18 hours (calf thymus DNA (CT-DNA)): 3.1 °C | Induced ΔTm after incubation 72 hours (calf thymus DNA (CT-DNA)): 3.2 °C

CCOC(=O)c1nc(NC(=O)c2nc(NC(=O)CCCOc3cc4c(cc3OC)C(=O)N3CCC[C@H]3C=N4)cn2C)cn1C [Compound 59, (11aS) Ethyl 4-({4-[4-(7-Methoxy-5-oxo-2,3,5,11a-tetrahydro-5H-pyrrolo[2,1-c][1,4]benzodiazepine-8-yloxy)-butyrylamino]-1-methyl-1H-imidazole-2-carbonyl}-amino)-1-methyl-1H-imidazole-2-carboxylate]
Induced ΔTm after incubation 0 hours (calf thymus DNA (CT-DNA)): 10.3 °C | Induced ΔTm after incubation 4 hours (calf thymus DNA (CT-DNA)): 10.9 °C | Induced ΔTm after incubation 18 hours (calf thymus DNA (CT-DNA)): 11.4 °C | Induced ΔTm after incubation 72 hours (calf thymus DNA (CT-DNA)): 11.4 °C

CCOC(=O)c1csc(NC(=O)c2csc(NC(=O)CCCOc3cc4c(cc3OC)C(=O)N3CCC[C@H]3C=N4)n2)n1 [Compound 61, (11aS) Ethyl 2-({2-[4-(7-Methoxy-5-oxo-2,3,5,11a-tetrahydro-5H-pyrrolo[2,1-c][1,4]benzodiazepine-8-yloxy)-butyrylamino]-thiazole-4-carbonyl}-amino)-thiazole-4-carboxylate]
Induced ΔTm after incubation 0 hours (calf thymus DNA (CT-DNA)): 7.7 °C | Induced ΔTm after incubation 4 hours (calf thymus DNA (CT-DNA)): 8.0 °C | Induced ΔTm after incubation 18 hours (calf thymus DNA (CT-DNA)): 8.3 °C | Induced ΔTm after incubation 72 hours (calf thymus DNA (CT-DNA)): 8.4 °C

CCOC(=O)c1csc(NC(=O)c2cc(NC(=O)CCCOc3cc4c(cc3OC)C(=O)N3CCC[C@H]3C=N4)cn2C)n1 [Compound 63, (11aS) Ethyl 2-({4-[4-(7-Methoxy-5-oxo-2,3,5,11a-tetrahydro-5H-pyrrolo[2,1-c][1,4]benzodiazepine-8-yloxy)-butyrylamino]-1-methyl-1H-pyrrole-2-carbonyl}-amino)-thiazole-4-carboxylate]
Induced ΔTm after incubation 0 hours (calf thymus DNA (CT-DNA)): 9.3 °C | Induced ΔTm after incubation 4 hours (calf thymus DNA (CT-DNA)): 9.6 °C | Induced ΔTm after incubation 18 hours (calf thymus DNA (CT-DNA)): 10.2 °C | Induced ΔTm after incubation 72 hours (calf thymus DNA (CT-DNA)): 10.5 °C

CCOC(=O)c1nc(NC(=O)c2cc(NC(=O)CCCOc3cc4c(cc3OC)C(=O)N3CCC[C@H]3C=N4)cn2C)cn1C [Compound 65, (11aS) Ethyl 4-({4-[4-(7-Methoxy-5-oxo-2,3,5,11a-tetrahydro-5H-pyrrolo[2,1-c][1,4]benzodiazepine-8-yloxy)-butyrylamino]-1-methyl-1H-pyrrole-2-carbonyl}-amino)-1-methyl-1H-imidazole-2-carboxylate]
Induced ΔTm after incubation 0 hours (calf thymus DNA (CT-DNA)): 10.0 °C | Induced ΔTm after incubation 4 hours (calf thymus DNA (CT-DNA)): 10.7 °C | Induced ΔTm after incubation 18 hours (calf thymus DNA (CT-DNA)): 11.2 °C | Induced ΔTm after incubation 72 hours (calf thymus DNA (CT-DNA)): 11.3 °C

COC(=O)c1cc(NC(=O)c2nc(NC(=O)c3cc(NC(=O)CCCOc4cc5c(cc4OC)C(=O)N4CCC[C@H]4C=N5)cn3C)cn2C)cn1C [Compound 71]
Induced ΔTm after incubation 0 hours (calf thymus DNA (CT-DNA)): 15.5 °C | Induced ΔTm after incubation 4 hours (calf thymus DNA (CT-DNA)): 16.0 °C | Induced ΔTm after incubation 18 hours (calf thymus DNA (CT-DNA)): 16.9 °C | Induced ΔTm after incubation 72 hours (calf thymus DNA (CT-DNA)): 17.2 °C | Concentration at which DNA binding is observed, ICB1 [1]: 1 µM | Concentration at which DNA binding is observed, ICB2 [1]: 5 µM | Lowest concentration at which NF-Y binding inhibition was observed [2]: 10 µM

COC(=O)c1cc(NC(=O)c2csc(NC(=O)c3cc(NC(=O)CCCOc4cc5c(cc4OC)C(=O)N4CCC[C@H]4C=N5)cn3C)n2)cn1C [Compound 73]
Induced ΔTm after incubation 0 hours (calf thymus DNA (CT-DNA)): 18.5 °C | Induced ΔTm after incubation 4 hours (calf thymus DNA (CT-DNA)): 19.9 °C | Induced ΔTm after incubation 18 hours (calf thymus DNA (CT-DNA)): 20.7 °C | Induced ΔTm after incubation 72 hours (calf thymus DNA (CT-DNA)): 20.9 °C | Concentration at which DNA binding is observed, ICB1 [1]: 5 µM | Concentration at which DNA binding is observed, ICB2 [1]: 1 µM | Lowest concentration at which NF-Y binding inhibition was observed [2]: 10 µM

COC(=O)c1cc(NC(=O)c2nc(NC(=O)c3nc(NC(=O)CCCOc4cc5c(cc4OC)C(=O)N4CCC[C@H]4C=N5)cn3C)cn2C)cn1C [Compound 75]
Induced ΔTm after incubation 0 hours (calf thymus DNA (CT-DNA)): 14.3 °C | Induced ΔTm after incubation 4 hours (calf thymus DNA (CT-DNA)): 15.0 °C | Induced ΔTm after incubation 18 hours (calf thymus DNA (CT-DNA)): 15.4 °C | Induced ΔTm after incubation 72 hours (calf thymus DNA (CT-DNA)): 15.6 °C

CCOC(=O)c1nc(NC(=O)c2nc(NC(=O)c3nc(NC(=O)CCCOc4cc5c(cc4OC)C(=O)N4CCC[C@H]4C=N5)cn3C)cn2C)cn1C [Compound 77]
Induced ΔTm after incubation 0 hours (calf thymus DNA (CT-DNA)): 11.0 °C | Induced ΔTm after incubation 4 hours (calf thymus DNA (CT-DNA)): 11.7 °C | Induced ΔTm after incubation 18 hours (calf thymus DNA (CT-DNA)): 12.0 °C | Induced ΔTm after incubation 72 hours (calf thymus DNA (CT-DNA)): 12.1 °C | Lowest concentration at which NF-Y binding inhibition was observed [2]: 50 µM

CCOC(=O)c1nc(NC(=O)c2cc(NC(=O)c3cc(NC(=O)CCCOc4cc5c(cc4OC)C(=O)N4CCC[C@H]4C=N5)cn3C)cn2C)cn1C [Compound 79]
Induced ΔTm after incubation 0 hours (calf thymus DNA (CT-DNA)): 13.9 °C | Induced ΔTm after incubation 4 hours (calf thymus DNA (CT-DNA)): 14.8 °C | Induced ΔTm after incubation 18 hours (calf thymus DNA (CT-DNA)): 15.2 °C | Induced ΔTm after incubation 72 hours (calf thymus DNA (CT-DNA)): 15.5 °C

CCOC(=O)c1nc(NC(=O)c2cc(NC(=O)c3nc(NC(=O)CCCOc4cc5c(cc4OC)C(=O)N4CCC[C@H]4C=N5)cn3C)cn2C)cn1C [Compound 81]
Induced ΔTm after incubation 0 hours (calf thymus DNA (CT-DNA)): 14.9 °C | Induced ΔTm after incubation 4 hours (calf thymus DNA (CT-DNA)): 15.7 °C | Induced ΔTm after incubation 18 hours (calf thymus DNA (CT-DNA)): 16.2 °C | Induced ΔTm after incubation 72 hours (calf thymus DNA (CT-DNA)): 16.4 °C

CCOC(=O)c1csc(NC(=O)c2csc(NC(=O)c3csc(NC(=O)CCCOc4cc5c(cc4OC)C(=O)N4CCC[C@H]4C=N5)n3)n2)n1 [Compound 83]
Induced ΔTm after incubation 0 hours (calf thymus DNA (CT-DNA)): 10.0 °C | Induced ΔTm after incubation 4 hours (calf thymus DNA (CT-DNA)): 10.7 °C | Induced ΔTm after incubation 18 hours (calf thymus DNA (CT-DNA)): 10.9 °C | Induced ΔTm after incubation 72 hours (calf thymus DNA (CT-DNA)): 11.0 °C

CCOC(=O)c1csc(NC(=O)c2csc(NC(=O)c3cc(NC(=O)CCCOc4cc5c(cc4OC)C(=O)N4CCC[C@H]4C=N5)cn3C)n2)n1 [Compound 85]
Induced ΔTm after incubation 0 hours (calf thymus DNA (CT-DNA)): 7.5 °C | Induced ΔTm after incubation 4 hours (calf thymus DNA (CT-DNA)): 8.0 °C | Induced ΔTm after incubation 18 hours (calf thymus DNA (CT-DNA)): 8.4 °C | Induced ΔTm after incubation 72 hours (calf thymus DNA (CT-DNA)): 8.4 °C

CCOC(=O)c1csc(NC(=O)c2cc(NC(=O)c3csc(NC(=O)CCCOc4cc5c(cc4OC)C(=O)N4CCC[C@H]4C=N5)n3)cn2C)n1 [Compound 87]
Induced ΔTm after incubation 0 hours (calf thymus DNA (CT-DNA)): 6.4 °C | Induced ΔTm after incubation 4 hours (calf thymus DNA (CT-DNA)): 6.8 °C | Induced ΔTm after incubation 18 hours (calf thymus DNA (CT-DNA)): 7.1 °C | Induced ΔTm after incubation 72 hours (calf thymus DNA (CT-DNA)): 7.3 °C

CCOC(=O)c1csc(NC(=O)c2cc(NC(=O)c3cc(NC(=O)CCCOc4cc5c(cc4OC)C(=O)N4CCC[C@H]4C=N5)cn3C)cn2C)n1 [Compound 89]
Induced ΔTm after incubation 0 hours (calf thymus DNA (CT-DNA)): 16.8 °C | Induced ΔTm after incubation 4 hours (calf thymus DNA (CT-DNA)): 17.7 °C | Induced ΔTm after incubation 18 hours (calf thymus DNA (CT-DNA)): 18.6 °C | Induced ΔTm after incubation 72 hours (calf thymus DNA (CT-DNA)): 18.8 °C
